Measurements reported in PubChem BioAssay (NCI).
Values joined by “and” are separate entries in the source; they are usually repeats but may differ in a detail not shown here. Equal entries are not always repeated.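 Results reflect a 48-hour exposure of cells in 96-well plates to compound at five concentrations. GI50: concentration for 50% inhibition of growth. TGI denotes the concentration required for complete inhibition of growth.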

Key:
Experiment in all cases: NCI tumour cell line growth inhibition, 48 h
[1] = tested on: A549 NSCLC
[2] = tested on: HOP-92 NSCLC
[3] = tested on: K-562 leukemia
[4] = tested on: KM12 colon
[5] = tested on: PC-3 prostate
[6] = tested on: RXF 393 renal
[7] = tested on: SK-MEL-2 melanoma
[8] = tested on: SNB-75 CNS
[9] = tested on: T-47D breast
[10] = tested on: TK-10 renal

CSC(=Nc1ccccc1)/N=C(\SCc1ccccc1)N(C)C was tested, and the TGI [1] was 4.63 µM, the TGI [2] was 2.73 µM and the TGI [3] was > 100 µM. The TGI [4] was 2.76 µM, the TGI [5] was 2.55 µM and the TGI [6] was 2.3 µM. For the same compound, the TGI [7] was 3.44 µM, the TGI [8] was 3.25 µM and the TGI [9] was 1.97 µM. It also gave a TGI [10] of 2.63 µM.

For Nc1ncnc2c1ncn2C1OC(CO)C(O)C1N (stereo unspecified), the TGI [1] was > 100 µM, the TGI [2] was > 100 µM and the TGI [3] was > 100 µM. For the same compound, the TGI [4] was > 100 µM, the TGI [5] was > 100 µM and the TGI [6] was > 100 µM. The TGI [7] was > 100 µM, the TGI [8] was > 100 µM and the TGI [9] was > 100 µM. For the same compound, the TGI [10] was > 100 µM.

For CCN(CC)Cc1cc2[nH]c3c4ccc(Cl)cc4ncc3c2cc1OC, the GI50 [1] was 3.46 µM and 3.16 µM, the TGI [1] was 13.3 µM and 10.5 µM and the GI50 [2] was 5.14 µM. For the same compound, the TGI [2] was 22.1 µM, the GI50 [3] was 3.39 µM and 1.89 µM and the TGI [3] was > 20.5 µM and 4.28 µM. The GI50 [4] was 2.18 µM and 1.72 µM, the TGI [4] was 7.09 µM and 4.37 µM and the GI50 [5] was 3.18 µM and 1.99 µM. The TGI [5] was 16 µM and 6.8 µM, the GI50 [6] was 2.07 µM and 1.68 µM and the TGI [6] was 4.25 µM and 3.27 µM. For the same compound, the GI50 [7] was 7.39 µM and 16.5 µM, the TGI [7] was 16.6 µM and 31.6 µM and the GI50 [8] was 1.61 µM and 1.81 µM. The TGI [8] was 3.92 µM and 3.88 µM, the GI50 [9] was 16.5 µM and 17.4 µM and the TGI [9] was 31.7 µM and 33.6 µM. The GI50 [10] was 5.4 µM and 2.62 µM and the TGI [10] was 11.2 µM and 5.62 µM.

In the case of CC1=C(C(=O)Nc2ccc(Cl)c(C(=O)OC(C)C)c2)SCCO1, the TGI [1] is reported as 65.8 µM, the TGI [2] is reported as > 100 µM and the TGI [3] is reported as > 90.2 µM. For the same compound, the TGI [4] was > 100 µM, the TGI [5] was > 100 µM and the TGI [6] was > 97.7 µM. The TGI [7] was 75.4 µM, the TGI [8] was > 100 µM and the TGI [9] was > 100 µM. The TGI [10] was > 100 µM.

With CN1C(=O)C2(c3ccccc31)N(c1ccc(Cl)cc1)C(=O)C2(c1ccccc1)c1ccccc1 (stereo unspecified) the GI50 [1] was 18.5 µM, the TGI [1] was > 100 µM and the GI50 [2] was 5.62 µM. The TGI [2] was 49.1 µM, the GI50 [3] was 4.28 µM and the TGI [3] was 95.3 µM. For the same compound, the GI50 [4] was > 100 µM, the TGI [4] was > 100 µM and the GI50 [5] was 5.63 µM. The TGI [5] was > 100 µM, the GI50 [6] was 64.6 µM and the TGI [6] was > 100 µM. For the same compound, the GI50 [7] was 35.6 µM, the TGI [7] was > 100 µM and the GI50 [8] was 17.8 µM. For the same compound, the TGI [8] was 90.5 µM, the GI50 [9] was 6.29 µM and the TGI [9] was > 100 µM. The GI50 [10] was > 100 µM and the TGI [10] was > 100 µM.

For COc1cc2c(=O)[nH]c3cc([N+](=O)[O-])ccc3c2cc1[N+](=O)[O-], the GI50 [1] was 4.11 µM, the TGI [1] was > 100 µM and the GI50 [2] was 15.8 µM. The TGI [2] was > 100 µM, the GI50 [3] was 5.97 µM and the TGI [3] was > 100 µM. The GI50 [4] was 4.67 µM, the TGI [4] was > 100 µM and the GI50 [5] was 6.07 µM. The TGI [5] was > 100 µM, the GI50 [6] was 6.99 µM and the TGI [6] was 92.2 µM. The GI50 [7] was 22.9 µM, the TGI [7] was > 100 µM and the GI50 [8] was 2.08 µM. For the same compound, the TGI [8] was 20 µM, the GI50 [9] was 3.52 µM and the TGI [9] was > 100 µM. For the same compound, the GI50 [10] was 3.29 µM and the TGI [10] was > 100 µM.

O=C(Nc1nc2ccccc2s1)Nc1ccc([N+](=O)[O-])cc1Cl showed a GI50 [1] of 2.17 µM, a TGI [1] of 5.7 µM and a GI50 [2] of 3.81 µM. For the same compound, the TGI [2] was 11.7 µM, the GI50 [3] was 3.48 µM and the TGI [3] was > 100 µM. The GI50 [4] was 2.82 µM, the TGI [4] was 8.48 µM and the GI50 [5] was 4.26 µM. The TGI [5] was > 28.8 µM, the GI50 [6] was 1.59 µM and the TGI [6] was 3.28 µM. For the same compound, the GI50 [7] was 12.7 µM, the TGI [7] was 26.9 µM and the GI50 [8] was 1.87 µM. It also gave a TGI [8] of 5.36 µM, a GI50 [9] of 2.86 µM and a TGI [9] of 11.7 µM. It also gave a GI50 [10] of 3.18 µM and a TGI [10] of 7.87 µM.

CN(CCCNC(=O)CCOCCOCCOCCNC(=O)Cc1ccc2ccc3cccc4ccc1c2c34)CCCNc1cc(-c2ccc3ccccc3c2)nc2ccccc12 showed a GI50 [1] of 0.629 µM, a TGI [1] of 1.74 µM and a GI50 [2] of 0.38 µM. For the same compound, the TGI [2] was 2.22 µM, the GI50 [3] was 0.0668 µM and the TGI [3] was 0.146 µM. It also gave a GI50 [4] of 0.47 µM, a TGI [4] of 1.04 µM and a GI50 [5] of 0.435 µM. It also gave a TGI [5] of 0.988 µM, a GI50 [6] of 0.507 µM and a TGI [6] of 0.963 µM. The GI50 [7] was 4.84 µM, the TGI [7] was 13.2 µM and the GI50 [8] was 0.51 µM. For the same compound, the TGI [8] was 0.994 µM, the GI50 [9] was 0.654 µM and the TGI [9] was 1.34 µM. For the same compound, the GI50 [10] was 3.29 µM and the TGI [10] was 14.7 µM.

For CC[C@H](C)[C@H](NC(=O)[C@H]1CCCCN1C)C(=O)N(C)[C@H](C[C@@H](OC(C)=O)c1nc(C(=O)N[C@@H](Cc2ccccc2)C[C@H](C)C(=O)O)cs1)C(C)C, the GI50 [1] was 0.00153 µM and 0.00165 µM, the TGI [1] was > 16.5 µM and the GI50 [2] was 7.24 µM. The TGI [2] was > 16.5 µM, the GI50 [3] was 0.000327 µM and 0.00165 µM and the TGI [3] was > 16.5 µM. For the same compound, the GI50 [4] was 0.000269 µM and 0.00165 µM, the GI50 [5] was 0.000339 µM and 0.00165 µM and the TGI [5] was > 16.5 µM. The GI50 [6] was 0.00165 µM, the TGI [6] was > 16.5 µM and the GI50 [7] was 0.0007 µM. The GI50 [8] was 0.000568 µM and 0.00165 µM, the TGI [8] was > 16.5 µM and the GI50 [9] was > 16.5 µM. The TGI [9] was > 16.5 µM.

In the case of CN1CCN(CCCOc2cccc3nc(Nc4ccc(Cl)c(C(F)(F)F)c4)ccc23)CC1, the GI50 [1] is reported as 1.72 µM, the TGI [1] is reported as 3.66 µM and the GI50 [2] is reported as 1.02 µM. For the same compound, the TGI [2] was 3.69 µM, the GI50 [3] was 1.62 µM and the TGI [3] was 3.34 µM. For the same compound, the GI50 [4] was 1.74 µM, the TGI [4] was 3.24 µM and the GI50 [5] was 1.57 µM. The TGI [5] was 3.03 µM, the GI50 [6] was 1.63 µM and the TGI [6] was 3.44 µM. The GI50 [7] was 2.06 µM, the TGI [7] was 4.49 µM and the GI50 [8] was 1.52 µM. For the same compound, the TGI [8] was 3.78 µM, the GI50 [9] was 1.97 µM and the TGI [9] was 4.52 µM. For the same compound, the GI50 [10] was 1.8 µM and the TGI [10] was 3.44 µM.
